DC50 data for seven molecules are collected here from US20240408093A1, “HETEROBIFUNCTIONAL COMPOUNDS AND THEIR USE IN TREATING DISEASE” (HALDA THERAPEUTICS OPCO, INC., priority 2022, published 2024).

Like-named read-outs stand apart in the source and are kept apart here.

Assay [1] deals with T1, CCNK (Homo sapiens, UniProt O75909+Q16531+Q9NYV4).
T1 construct: expressed in transfected cells; host or cells: HEK293 LgBiT cells (Promega), lentiviral transduction, puromycin selection
The assay is described as follows: CCNK HiBiT degradation assay. It is filed as cell-based. The note with it: HEK293 LgBiT/CCNK HiBiT cells, 6 hours. As for the experimental part: HEK293 LgBiT cells (Promega) were cultured in DMEM (Gibco 11995), supplemented with 10% Heat-inactivated FBS (Gibco A38400-01) and 1% Penicillin/Streptomycin (Gibco 15140-122) and 200 μg/ml Hygromycin B (Gibco 10-687-010) at 37° C. with 5% CO2 in a humidified tissue culture incubator. Cells were made stable for CCNK fused to a C-terminal HiBiT peptide by lentiviral transduction, followed by selection with 1 μg/ml Puromycin Dihydrochloride (Thermo A1113803). HEK293 LgBiT/CCNK HiBiT cells were seeded at 3000 cells/well in 384-well, tissue culture-treated white plates (Perkin Elmer 6007680) in 25 μL media lacking selection for 18-24 hours. Plates were spun at 300 g for 30 seconds and stored in the incubator overnight. After 24 hours, compounds were titrated in DMSO and added to media supplemented with Endurazine Substrate (Promega N2570). A 25 ul aliquot of 2× compound/endurazine in media were then added to the 384-well microplate with seeded cells. (Endurazine was used at a final concentration of 0.5×). The plate was spun at 300 g for 30 seconds and stored in the incubator. After 6 hours the plate was read on Envision MultiMode Plate Reader 2105 (Perkin Elmer) to measure luminescence signal. Data were plotted in Prism (Graphpad) and the concentration of compound at which 50% CCNK degradation occurs (DC50) was calculated.
On the technique in general: The HiBiT peptide binds its large partner to form an active luciferase.

For assay [2], the system named is CCNK. The assay is described as follows: Payload release assay (DC50 readout), CCNK degradation in the presence of recombinant target protein. It is filed as cell-based. How it is done: Exemplary compounds were tested for ability to cause degradation of CCNK or GSPT1 in the presence of recombinant target protein.
HEK293 LgBiT/GSPT1 HiBiT CRISPR Knock-in cells (Promega) were cultured in DMEM (Gibco 11995), supplemented with 10% Heat-inactivated FBS (Gibco A38400-01) and 1% Penicillin/Streptomycin (Gibco 15140-122) and 200 Vg/ml Hygromycin B (Gibco 10-687-010) at 37° C. with 5% CO2 in a humidified tissue culture incubator. HEK293 LgBiT/CCNK HiBiT cells (in-house, described above) were cultured in DMEM (Gibco 11995), supplemented with 10% Heat-inactivated FBS (Gibco A38400-01) and 1% Penicillin/Streptomycin (Gibco 15140-122) 200 Vg/ml Hygromycin B (Gibco 10-687-010), and 1 Vg/ml Puromycin Dihydrochloride (Thermo A1113803) at 37° C. with 5% CO2 in a humidified tissue culture incubator. Cells were seeded (1000 cells/well for HEK293 LgBiT/GSPT1 HiBiT cells or 3000 cells/well for HEK293 LgBiT/CCNK HiBiT cells) 384-well, tissue culture-treated white plates (Perkin Elmer 6007680) in 10 μL media lacking selection for 18-24 hours. Plates were spun at 300 g for 30 seconds and stored in the incubator overnight. After 24 hours, a 5 μL aliquot of recombinant target protein (final concentration of either 5 μM KRAS amino acids 1-169, C51S, C80L, C118S, G12C or 3 μM EGFR amino acids 696-1022 or 3 μM EGFR amino acids 696-1022, T790M, L858R) was added to wells, followed immediately by a 5 μL aliquot of 4× compound-containing medium supplemented with Endurazine Substrate (Promega N2570) was added in each well, at a final top concentration of 10 μM test compound and 0.5× Endurazine, with 4-fold dilutions, using DMSO alone as a negative control. Plates were then spun at 300×g for 3 minutes again and cultured at 37° C. with 5% CO2. After 6 hours the plate was read on Envision MultiMode Plate Reader 2105 (Perkin Elmer) to measure luminescence signal. Data was normalized to DMSO treated cell wells. A four-parameter non-linear regression curve fit was applied to dose-response data in Prism to determine the half maximal growth inhibitory concentration (GI50) of each compound.

Where [3] appears, read: 0 μM recombinant EGFR T790M L858R, II-series and V-4 (CCNK readout inferred), read-out: DC50 at 0 μM EGFR T790M L858R.
The mark [4] stands for this setting: 0 μM recombinant EGFR WT, II-series and V-4 (CCNK readout inferred), read-out: DC50 at 0 μM EGFR WT.
Setting [5] is: 3 μM recombinant EGFR T790M L858R, II-series and V-4 (CCNK readout inferred), read-out: DC50 at 3 μM EGFR T790M L858R.
Setting [6] is: 3 μM recombinant EGFR WT, II-series and V-4 (CCNK readout inferred), read-out: DC50 at 3 μM EGFR WT.
[7] abbreviates: 0 μM recombinant KRAS G12C, II-series compounds (CCNK readout inferred), read-out: DC50 at 0 μM KRAS G12C.
Setting [8] is: 5 μM recombinant KRAS G12C, II-series compounds (CCNK readout inferred), read-out: DC50 at 5 μM KRAS G12C.

T1 sequence (O75909 whole entry, species assumed): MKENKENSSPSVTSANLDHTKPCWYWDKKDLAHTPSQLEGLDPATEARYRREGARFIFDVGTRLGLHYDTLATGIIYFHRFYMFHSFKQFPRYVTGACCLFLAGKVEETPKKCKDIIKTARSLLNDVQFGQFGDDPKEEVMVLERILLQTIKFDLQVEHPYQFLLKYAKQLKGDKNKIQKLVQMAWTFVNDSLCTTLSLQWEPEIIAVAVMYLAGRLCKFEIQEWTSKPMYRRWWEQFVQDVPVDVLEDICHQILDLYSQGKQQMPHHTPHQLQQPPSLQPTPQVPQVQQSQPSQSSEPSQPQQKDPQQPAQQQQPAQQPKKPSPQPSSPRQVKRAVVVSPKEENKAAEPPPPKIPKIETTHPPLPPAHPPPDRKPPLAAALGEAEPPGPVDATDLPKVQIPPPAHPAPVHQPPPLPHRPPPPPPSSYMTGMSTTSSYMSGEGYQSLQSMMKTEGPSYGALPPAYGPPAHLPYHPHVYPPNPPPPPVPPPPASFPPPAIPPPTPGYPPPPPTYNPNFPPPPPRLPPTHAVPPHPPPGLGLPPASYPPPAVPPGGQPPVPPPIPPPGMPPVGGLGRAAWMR
T1 sequence (Q9NYV4 whole entry, species assumed): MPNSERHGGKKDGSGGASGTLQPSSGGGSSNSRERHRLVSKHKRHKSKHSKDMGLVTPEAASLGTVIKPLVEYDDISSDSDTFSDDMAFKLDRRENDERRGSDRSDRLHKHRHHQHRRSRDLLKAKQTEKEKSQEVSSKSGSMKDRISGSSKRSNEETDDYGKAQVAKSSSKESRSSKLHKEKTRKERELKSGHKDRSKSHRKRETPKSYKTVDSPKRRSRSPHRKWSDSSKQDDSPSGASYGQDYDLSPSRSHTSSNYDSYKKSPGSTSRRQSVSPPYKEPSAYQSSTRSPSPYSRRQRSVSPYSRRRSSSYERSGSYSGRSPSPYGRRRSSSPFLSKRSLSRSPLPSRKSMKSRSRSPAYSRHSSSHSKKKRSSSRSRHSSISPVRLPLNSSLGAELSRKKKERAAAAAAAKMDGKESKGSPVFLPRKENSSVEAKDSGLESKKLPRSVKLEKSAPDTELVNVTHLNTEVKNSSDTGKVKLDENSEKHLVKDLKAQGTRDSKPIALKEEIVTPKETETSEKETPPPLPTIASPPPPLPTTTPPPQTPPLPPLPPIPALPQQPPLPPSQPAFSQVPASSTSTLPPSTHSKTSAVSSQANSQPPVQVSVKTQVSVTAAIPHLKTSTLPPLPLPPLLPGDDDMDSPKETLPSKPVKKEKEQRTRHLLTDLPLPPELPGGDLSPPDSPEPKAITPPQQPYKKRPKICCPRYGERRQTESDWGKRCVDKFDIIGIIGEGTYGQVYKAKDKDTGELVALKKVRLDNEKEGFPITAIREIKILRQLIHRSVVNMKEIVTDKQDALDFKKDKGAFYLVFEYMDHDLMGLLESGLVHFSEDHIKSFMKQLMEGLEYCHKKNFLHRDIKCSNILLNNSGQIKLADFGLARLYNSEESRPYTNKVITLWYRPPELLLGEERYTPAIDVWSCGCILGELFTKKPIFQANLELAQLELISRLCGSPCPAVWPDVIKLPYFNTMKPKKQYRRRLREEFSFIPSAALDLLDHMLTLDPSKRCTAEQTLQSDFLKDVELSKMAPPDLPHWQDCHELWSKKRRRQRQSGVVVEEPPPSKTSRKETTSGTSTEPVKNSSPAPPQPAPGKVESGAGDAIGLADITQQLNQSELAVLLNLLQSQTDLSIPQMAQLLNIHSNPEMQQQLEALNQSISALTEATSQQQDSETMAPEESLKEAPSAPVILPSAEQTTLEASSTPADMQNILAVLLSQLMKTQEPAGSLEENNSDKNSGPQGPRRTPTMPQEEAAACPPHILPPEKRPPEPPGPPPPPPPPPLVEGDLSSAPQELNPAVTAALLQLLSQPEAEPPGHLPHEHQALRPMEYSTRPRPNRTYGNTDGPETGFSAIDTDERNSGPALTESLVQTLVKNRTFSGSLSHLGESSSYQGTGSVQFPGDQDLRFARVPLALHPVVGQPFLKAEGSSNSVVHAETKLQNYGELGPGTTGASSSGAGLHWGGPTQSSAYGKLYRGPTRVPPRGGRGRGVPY
T1 sequence (Q16531 whole entry, species assumed): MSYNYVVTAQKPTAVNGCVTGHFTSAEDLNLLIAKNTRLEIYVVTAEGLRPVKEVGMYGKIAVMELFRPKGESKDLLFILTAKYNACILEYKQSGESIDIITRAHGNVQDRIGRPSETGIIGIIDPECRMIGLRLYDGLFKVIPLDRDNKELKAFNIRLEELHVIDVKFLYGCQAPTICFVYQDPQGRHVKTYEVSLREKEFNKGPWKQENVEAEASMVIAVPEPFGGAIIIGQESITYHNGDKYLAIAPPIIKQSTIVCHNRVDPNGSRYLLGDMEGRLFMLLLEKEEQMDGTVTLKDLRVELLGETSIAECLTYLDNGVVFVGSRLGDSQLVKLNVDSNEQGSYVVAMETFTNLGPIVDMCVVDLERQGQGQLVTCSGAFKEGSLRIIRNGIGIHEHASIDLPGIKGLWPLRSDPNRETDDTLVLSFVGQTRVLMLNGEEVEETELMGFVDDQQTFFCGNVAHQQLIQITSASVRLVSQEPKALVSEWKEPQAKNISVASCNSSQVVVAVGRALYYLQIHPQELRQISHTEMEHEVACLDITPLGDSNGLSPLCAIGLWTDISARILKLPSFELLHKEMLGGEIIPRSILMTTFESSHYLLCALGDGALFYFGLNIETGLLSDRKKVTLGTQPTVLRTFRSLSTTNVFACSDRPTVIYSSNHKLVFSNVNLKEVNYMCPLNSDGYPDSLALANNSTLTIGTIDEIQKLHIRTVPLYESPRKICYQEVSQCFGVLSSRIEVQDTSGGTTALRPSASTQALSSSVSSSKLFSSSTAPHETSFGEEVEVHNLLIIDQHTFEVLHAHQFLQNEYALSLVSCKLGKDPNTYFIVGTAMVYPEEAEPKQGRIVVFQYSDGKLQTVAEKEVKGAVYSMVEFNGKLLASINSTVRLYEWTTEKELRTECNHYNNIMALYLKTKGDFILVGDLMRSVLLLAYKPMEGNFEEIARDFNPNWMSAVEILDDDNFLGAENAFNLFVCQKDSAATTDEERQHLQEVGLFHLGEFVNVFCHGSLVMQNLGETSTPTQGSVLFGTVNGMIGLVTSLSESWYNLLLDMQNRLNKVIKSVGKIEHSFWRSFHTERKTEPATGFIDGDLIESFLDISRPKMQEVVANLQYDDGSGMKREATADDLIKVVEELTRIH

Turning to `C=C(COC(=O)n1c(CNc2nc(N3CCNCC3)nc3c(Br)cnn23)nc2cc(C)ccc21)C(=O)N1C[C@H](COc2nc(Nc3cnn(C)c3)nc3[nH]cc(Cl)c23)[C@@H](OC)C1` [Compound V-4], the DC50 on CCNK [1], in the assay with CCNK [2] (setting [3]), in the assay with CCNK [2] (setting [4]), in the assay on CCNK [2] (setting [5]) and in the assay with CCNK [2] (setting [6]) was less than 250 nM in each case.
`C=C(COc1cc(-c2ccccn2)ccc1CNc1nc(N[C@H](CC)CO)nc2c1ncn2C(C)C)C(=O)N[C@@H]1CN(c2nc(Nc3cn(C)nc3OC)c3ncn(C)c3n2)C[C@H]1F` [II-183]: the half-maximal degradation concentration (DC50) in the assay with CCNK [2] (setting [3]) and in the assay with CCNK [2] (setting [4]) was less than 250 nM in each case.
As for `C=C(COC(=O)N1CCN(c2nc(NCc3nc4cc(C)ccc4[nH]3)n3ncc(Br)c3n2)CC1)C(=O)N1C[C@H](COc2nc(Nc3cnn(C)c3)nc3[nH]cc(Cl)c23)[C@@H](OC)C1` [II-185], the 50% degradation concentration (DC50) was less than 250 nM at CCNK [1]; 250 to 5000 nM with CCNK [2] (setting [3]); 250 to 5000 nM with CCNK [2] (setting [4]); less than 250 nM in the assay with CCNK [2] (setting [5]); less than 250 nM in the assay with CCNK [2] (setting [6]).
Turning to `C=C(COc1cc(-c2ccccn2)ccc1CNc1nc(N[C@H](CC)CO)nc2c1ncn2C(C)C)C(=O)N1CCN(c2nc(OC[C@@H]3CCCN3C)nc3c2CCN(c2cccc4cccc(Cl)c24)C3)C[C@@H]1CC#N` [II-186], the values for the DC50 at CCNK [1], in the assay with CCNK [2] (setting [7]) and in the assay on CCNK [2] (setting [8]) were 250 to 5000 nM, 250 to 5000 nM and less than 250 nM, respectively.
Turning to `C=C(CN1CCN(c2nc(NCc3nc4cc(C)ccc4[nH]3)n3ncc(Br)c3n2)CC1)C(=O)Nc1cc(Nc2nccc(-c3cn(C)c4ccccc34)n2)c(OC)cc1N(C)CCN(C)C` [II-188], the DC50 on CCNK [1] is less than 250 nM; with CCNK [2] (setting [3]), less than 250 nM; with CCNK [2] (setting [4]), less than 250 nM; in the assay on CCNK [2] (setting [6]), more than 10000 nM.
Consider `C=C(CN1CCN(c2nc(NCc3nc4cc(C)ccc4[nH]3)n3ncc(Br)c3n2)CC1)C(=O)N1CCN(c2nc(OC[C@@H]3CCCN3C)nc3c2CCN(c2cccc4cccc(Cl)c24)C3)C[C@@H]1CC#N` [II-190], for which the DC50 on CCNK [1], in the assay on CCNK [2] (setting [7]) and in the assay with CCNK [2] (setting [8]) was less than 250 nM throughout.
`C=C(CN1CCN(c2nc(NCc3nc4cc(C)ccc4[nH]3)n3ncc(Br)c3n2)CC1)C(=O)Nc1cccc(-c2cccc3cnc(Nc4ccc(N5CCN(CCO)CC5)c(F)c4F)nc23)c1` [II-191]: the DC50 with CCNK [2] (setting [3]) lay within 250 to 5000 nM; in the assay on CCNK [2] (setting [4]) it was 5000 to 10000 nM.

As a reminder, the DC50 is the concentration giving 50% degradation.
